From article PMC4691848 (Nature, 2012) come the findings set out here.

The test system of series [1] is 100 protein kinases. In words: kinase competition-binding assay. The following applies: 30 μM.
The test system of series [2] is panel of 60 unrelated proteins, including histone deacetylases. In words: off-target panel.
Series [3] addresses Flag-tagged UTX from transiently transfected HEK-293 cells (Homo sapiens, UniProt O15550). In words: chemoproteomics affinity capture with immobilized GSK-J3, western blotting. The series is classed as binding. The following applies: 100 μM free compound, HEK-293 lysate.
Series [4] in a line: intracellular compound quantification in macrophage lysates. It is filed as in vitro ADME, human.
Series [5] concerns panel of demethylases of the JMJ family. In words: JMJ selectivity panel. The following applies: other than JMJD3 and UTX.
The test system of series [6] is Flag-JMJD3-transfected HeLa cells. In words: nuclear H3K27me3 immunostaining. It is filed as cell-based.
Series [7] is described as follows: cytokine expression by PCR array in LPS-activated macrophages. It is filed as cell-based, human. The note with it: 30 μM, LPS 2 h, n = 4 donors.
A short description of series [8]: TNF-α production by LPS-activated macrophages. It is filed as cell-based, human.
The nature of series [9]: ChIP analysis at the TNFA locus in LPS-stimulated macrophages. The series is classed as cell-based, human.
In series [10] the test system is macrophages derived from patients with rheumatoid arthritis. In words: TNF-α production by macrophages derived from patients with rheumatoid arthritis. It is filed as cell-based, human.

What is called IC50 is the concentration needed to halve the response being measured.

Chain of Flag-tagged UTX from transiently transfected HEK-293 cells (O15550 whole entry): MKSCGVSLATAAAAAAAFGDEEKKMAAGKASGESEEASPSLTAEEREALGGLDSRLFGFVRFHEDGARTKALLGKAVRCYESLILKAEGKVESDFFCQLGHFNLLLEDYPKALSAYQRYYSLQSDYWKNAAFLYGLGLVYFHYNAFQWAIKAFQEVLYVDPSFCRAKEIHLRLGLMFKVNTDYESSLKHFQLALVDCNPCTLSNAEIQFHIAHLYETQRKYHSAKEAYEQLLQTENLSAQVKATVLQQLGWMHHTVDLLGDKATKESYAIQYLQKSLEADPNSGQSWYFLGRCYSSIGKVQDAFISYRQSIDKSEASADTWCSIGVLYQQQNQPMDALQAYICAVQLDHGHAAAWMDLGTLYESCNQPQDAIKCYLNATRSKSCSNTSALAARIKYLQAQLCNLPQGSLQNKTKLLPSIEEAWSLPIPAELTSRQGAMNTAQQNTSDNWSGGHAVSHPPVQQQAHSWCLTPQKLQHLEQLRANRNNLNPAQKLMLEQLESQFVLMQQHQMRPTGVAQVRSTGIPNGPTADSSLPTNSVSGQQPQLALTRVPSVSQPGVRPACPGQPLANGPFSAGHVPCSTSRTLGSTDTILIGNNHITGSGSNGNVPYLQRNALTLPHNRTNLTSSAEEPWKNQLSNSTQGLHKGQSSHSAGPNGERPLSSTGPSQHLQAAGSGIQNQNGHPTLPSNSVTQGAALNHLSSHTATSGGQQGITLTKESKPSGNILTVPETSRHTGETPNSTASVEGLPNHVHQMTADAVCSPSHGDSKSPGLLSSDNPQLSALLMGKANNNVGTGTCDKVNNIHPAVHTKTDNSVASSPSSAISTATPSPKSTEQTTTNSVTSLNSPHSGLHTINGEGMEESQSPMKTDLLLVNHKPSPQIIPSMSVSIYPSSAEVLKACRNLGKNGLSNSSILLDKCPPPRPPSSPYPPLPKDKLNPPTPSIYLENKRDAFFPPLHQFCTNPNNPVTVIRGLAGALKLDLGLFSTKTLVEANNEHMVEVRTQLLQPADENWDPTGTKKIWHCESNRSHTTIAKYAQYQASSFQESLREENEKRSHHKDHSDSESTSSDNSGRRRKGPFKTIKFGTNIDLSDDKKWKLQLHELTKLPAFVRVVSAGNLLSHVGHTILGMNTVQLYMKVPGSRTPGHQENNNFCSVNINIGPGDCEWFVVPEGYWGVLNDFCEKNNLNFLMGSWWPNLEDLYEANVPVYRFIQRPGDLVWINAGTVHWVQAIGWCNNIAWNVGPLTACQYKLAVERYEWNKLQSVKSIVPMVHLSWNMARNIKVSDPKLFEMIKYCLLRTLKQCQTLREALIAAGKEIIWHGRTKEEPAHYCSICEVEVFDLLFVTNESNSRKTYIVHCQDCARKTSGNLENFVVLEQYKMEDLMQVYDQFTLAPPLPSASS

Turning to `O=C(O)CCNc1cc(N2CCc3ccccc3CC2)nc(-c2ccccn2)n1` [GSK-J1], in [1], the “inhibition of 100 protein kinases” value is on record as “did not significantly inhibit”. In series [2], the “off-target activity against a panel of 60 unrelated proteins” value is “negligible off-target activity”. Also, in series [3], the “competition of capture of Flag-tagged UTX by immobilized GSK-J3” value is reported as “competitively inhibited”. Besides, in series [4], the cellular permeability entry was “restricts cellular permeability”. Further, the “activity against a panel of demethylases of the JMJ family” value in series [5] was “inactive”.

For `CCOC(=O)CCNc1cc(N2CCc3ccccc3CC2)nc(-c2ccccn2)n1` [GSK-J4], in series [4], the “hydrolysis by macrophage esterases” value is “rapidly hydrolysed”. Also, in series [6] (25 μM), the “nuclear H3K27me3 staining in Flag-JMJD3-transfected HeLa cells” value is “preserved nuclear H3K27me3 staining”. The “total nuclear H3K27me3 levels in untransfected cells” value in series [6] (untransfected cells) is on record as “increased total nuclear H3K27me3 levels”. For the same molecule, the “LPS-driven cytokines with significantly reduced expression (PCR array)” value in [7] was 16 of 34. Moreover, the “levels of LPS-induced JMJD3 or of LPS-independent UTX and EZH2” value in series [8] is “neither GSK-J4 nor GSK-J5 directly affected”. In addition, the “TNF-α production after siRNA knockdown of either JMJD3 or UTX alone” value in series [8] (30 μM, LPS 1 h) is reported as “still able to inhibit TNF-α production”. In addition, the cellular toxicity result in series [8] (conditions of the TNF-α assay) is “No interference from cellular toxicity was observed”. For the same molecule, in [8] (read-out: IC50 for TNF-α blockade, LPS, 6 h, n = 5 donors), the 50% inhibitory concentration (IC50) amounted to 9 µM. The “H3K27 methylation upstream of the TNFA TSS” value in series [9] is “Neither GSK-J4 nor GSK-J5 had an effect”. Further, in series [9] (30 μM, LPS 1 h, n = 8 donors), the “LPS-induced loss of H3K27me3 associated with the TNFA TSS (ChIP)” value is “prevented the LPS-induced loss of H3K27me3” and the “recruitment of RNA polymerase II to the TNFA TSS (ChIP)” value is listed as “blocked the recruitment of RNA polymerase II”. The “production of TNF-α by macrophages from patients with rheumatoid arthritis” value in series [10] was “blocked the production of TNF-α”.

`CCOC(=O)CCNc1cc(N2CCc3ccccc3CC2)nc(-c2cccnc2)n1` [GSK-J5]: in series [4], the “hydrolysis by macrophage esterases” value is given as “rapidly hydrolysed”. Besides, in series [8], the “levels of LPS-induced JMJD3 or of LPS-independent UTX and EZH2” value was “neither GSK-J4 nor GSK-J5 directly affected”. In series [8] (LPS, 6 h), the “effect on TNF-α protein production” value is given as “no effect”. In addition, in [9], the “H3K27 methylation upstream of the TNFA TSS” value was “Neither GSK-J4 nor GSK-J5 had an effect”.
